Data as given in paper PMC3796545, “Protein-Protein Interactions as a Strategy towards Protein-Specific Drug Design: The Example of Ataxin-1” (PLoS ONE, 2013).
Peptide text beside a SMILES is read from it.

Target: T1, ATX1 AXH (residues A567–K689 of human ATX1) (Homo sapiens, UniProt P54253)
T1 construct: Recombinant ATX1 AXH (residues A567–K689 of human ATX1); His6-GST (N, cleaved yes); made in house; host or cells: E. coli BL21(DE3)pLysS
T1 sequence (P54253 566-688 limits assumed): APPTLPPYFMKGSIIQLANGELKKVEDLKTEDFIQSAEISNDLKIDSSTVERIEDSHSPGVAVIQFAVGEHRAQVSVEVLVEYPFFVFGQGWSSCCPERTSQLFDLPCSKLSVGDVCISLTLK
Test: ITC binding of CIC peptides to ATX1 AXH
Conditions: 25°C, 50 mM Tris-HCl pH 7, 50 mM NaCl, 2 mM TCEP, 0.041 mM AXH in cell, 0.410 mM peptide in syringe, averages of three measurements, read-out: dissociation constant (Kd)
Procedure: Binding affinities of AXH with CIC ligands were measured at 25°C by a MicroCal Omega VP-ITC (MicroCal Inc., Northampton, USA). Both protein and peptides buffers were 50 mM Tris-HCl pH 7, 50 mM NaCl, 2 mM TCEP. Solutions of 0.041 mM AXH in the cell were titrated by injections of a total of 283 µl of 0.410 mM peptide in the syringe in 21 aliquots. Data were processed with the software MicroCal Origin version 5.0 provided by the manufacturer. All dissociation constants were averages of three measurements.

In order of rising Kd:
1. CC(C)C[C@H](NC(=O)[C@H](C)NC(=O)[C@H](Cc1c[nH]cn1)NC(=O)[C@H](Cc1c[nH]c2ccccc12)NC(=O)[C@@H]1CCCN1C(=O)[C@H](Cc1ccccc1)NC(=O)[C@@H](N)C(C)C)C(=O)N[C@H](C(=O)N1CCC[C@H]1C(=O)N[C@@H](Cc1ccccc1)C(=O)N[C@@H](CC(C)C)C(=O)N[C@@H](C)C(=O)N1CCC[C@H]1C(=O)N[C@@H](CO)C(=O)N[C@@H](CCC(N)=O)C(=O)O)C(C)C [S39] (H-VFPWHALVPFLAPSQ-OH)  0.01 µM
2. CC(C)C[C@H](NC(=O)[C@H](Cc1ccccc1)NC(=O)[C@@H]1CCCN1C(=O)[C@@H](NC(=O)[C@H](CC(C)C)NC(=O)[C@H](CO)NC(=O)[C@H](Cc1c[nH]cn1)NC(=O)[C@H](Cc1c[nH]c2ccccc12)NC(=O)[C@@H]1CCCN1C(=O)[C@H](Cc1ccccc1)NC(=O)[C@H](C)N)C(C)C)C(=O)N[C@@H](C)C(=O)N1CCC[C@H]1C(=O)N[C@@H](CO)C(=O)N[C@@H](CCC(N)=O)C(=O)O [V34] (H-AFPWHSLVPFLAPSQ-OH)  0.02 µM
3. CC(C)C[C@H](NC(=O)[C@H](Cc1ccccc1)NC(=O)[C@@H]1CCCN1C(=O)[C@@H](NC(=O)[C@H](CC(C)C)NC(=O)[C@H](CO)NC(=O)[C@H](Cc1c[nH]cn1)NC(=O)[C@H](Cc1c[nH]c2ccccc12)NC(=O)[C@@H]1CCCN1C(=O)[C@H](Cc1ccccc1)NC(=O)[C@@H](N)C(C)C)C(C)C)C(=O)N[C@@H](C)C(=O)N[C@@H](C)C(=O)N[C@@H](CO)C(=O)N[C@@H](CCC(N)=O)C(=O)O [P46] (H-VFPWHSLVPFLAASQ-OH)  0.02 µM
4. CC(C)C[C@H](NC(=O)[C@H](Cc1ccccc1)NC(=O)[C@@H]1CCCN1C(=O)[C@@H](NC(=O)[C@H](CC(C)C)NC(=O)[C@H](CO)NC(=O)[C@H](Cc1c[nH]cn1)NC(=O)[C@H](Cc1c[nH]c2ccccc12)NC(=O)[C@@H]1CCCN1C(=O)[C@H](Cc1ccccc1)NC(=O)[C@@H](N)C(C)C)C(C)C)C(=O)NCC(=O)N1CCC[C@H]1C(=O)N[C@@H](CO)C(=O)N[C@@H](CCC(N)=O)C(=O)O [A45] (H-VFPWHSLVPFLGPSQ-OH)  0.02 µM
5. CC(C)C[C@H](NC(=O)[C@H](Cc1ccccc1)NC(=O)[C@@H]1CCCN1C(=O)[C@@H](NC(=O)[C@H](CC(C)C)NC(=O)[C@H](CO)NC(=O)[C@H](Cc1c[nH]cn1)NC(=O)[C@H](Cc1c[nH]c2ccccc12)NC(=O)[C@@H]1CCCN1C(=O)[C@H](Cc1ccccc1)NC(=O)[C@@H](N)C(C)C)C(C)C)C(=O)N[C@@H](C)C(=O)N1CCC[C@H]1C(=O)N[C@@H](CO)C(=O)N[C@@H](CCC(N)=O)C(=O)O [L-CICp] (H-VFPWHSLVPFLAPSQ-OH)  0.03 µM
6. CC(C)C[C@H](NC(=O)[C@H](Cc1ccccc1)NC(=O)[C@@H]1CCCN1C(=O)[C@@H](NC(=O)[C@H](CC(C)C)NC(=O)[C@H](CO)NC(=O)[C@H](Cc1c[nH]cn1)NC(=O)[C@H](Cc1c[nH]c2ccccc12)NC(=O)[C@@H]1CCCN1C(=O)[C@H](C)NC(=O)[C@@H](N)C(C)C)C(C)C)C(=O)N[C@@H](C)C(=O)N1CCC[C@H]1C(=O)N[C@@H](CO)C(=O)N[C@@H](CCC(N)=O)C(=O)O [F35] (H-VAPWHSLVPFLAPSQ-OH)  0.03 µM
7. CC(C)C[C@H](NC(=O)[C@H](Cc1ccccc1)NC(=O)[C@H](C)NC(=O)[C@@H](NC(=O)[C@H](CC(C)C)NC(=O)[C@H](CO)NC(=O)[C@H](Cc1c[nH]cn1)NC(=O)[C@H](Cc1c[nH]c2ccccc12)NC(=O)[C@@H]1CCCN1C(=O)[C@H](Cc1ccccc1)NC(=O)[C@@H](N)C(C)C)C(C)C)C(=O)N[C@@H](C)C(=O)N1CCC[C@H]1C(=O)N[C@@H](CO)C(=O)N[C@@H](CCC(N)=O)C(=O)O [P42] (H-VFPWHSLVAFLAPSQ-OH)  0.04 µM
8. CC(C)C[C@H](NC(=O)[C@H](Cc1ccccc1)NC(=O)[C@@H]1CCCN1C(=O)[C@@H](NC(=O)[C@H](CC(C)C)NC(=O)[C@H](CO)NC(=O)[C@H](Cc1c[nH]cn1)NC(=O)[C@H](Cc1c[nH]c2ccccc12)NC(=O)[C@H](C)NC(=O)[C@H](Cc1ccccc1)NC(=O)[C@@H](N)C(C)C)C(C)C)C(=O)N[C@@H](C)C(=O)N1CCC[C@H]1C(=O)N[C@@H](CO)C(=O)N[C@@H](CCC(N)=O)C(=O)O [P36] (H-VFAWHSLVPFLAPSQ-OH)  0.04 µM
9. CC(C)C[C@H](NC(=O)[C@H](CO)NC(=O)[C@H](Cc1c[nH]cn1)NC(=O)[C@H](Cc1c[nH]c2ccccc12)NC(=O)[C@@H]1CCCN1C(=O)[C@H](Cc1ccccc1)NC(=O)[C@@H](N)C(C)C)C(=O)N[C@H](C(=O)N1CCC[C@H]1C(=O)N[C@@H](Cc1ccccc1)C(=O)N[C@@H](C)C(=O)N[C@@H](C)C(=O)N1CCC[C@H]1C(=O)N[C@@H](CO)C(=O)N[C@@H](CCC(N)=O)C(=O)O)C(C)C [L44] (H-VFPWHSLVPFAAPSQ-OH)  0.05 µM
10. CC(C)C[C@H](NC(=O)[C@H](C)NC(=O)[C@@H]1CCCN1C(=O)[C@@H](NC(=O)[C@H](CC(C)C)NC(=O)[C@H](CO)NC(=O)[C@H](Cc1c[nH]cn1)NC(=O)[C@H](Cc1c[nH]c2ccccc12)NC(=O)[C@@H]1CCCN1C(=O)[C@H](Cc1ccccc1)NC(=O)[C@@H](N)C(C)C)C(C)C)C(=O)N[C@@H](C)C(=O)N1CCC[C@H]1C(=O)N[C@@H](CO)C(=O)N[C@@H](CCC(N)=O)C(=O)O [F43] (H-VFPWHSLVPALAPSQ-OH)  0.06 µM
11. CC(C)C[C@H](NC(=O)[C@H](Cc1ccccc1)NC(=O)[C@@H]1CCCN1C(=O)[C@H](C)NC(=O)[C@H](CC(C)C)NC(=O)[C@H](CO)NC(=O)[C@H](Cc1c[nH]cn1)NC(=O)[C@H](Cc1c[nH]c2ccccc12)NC(=O)[C@@H]1CCCN1C(=O)[C@H](Cc1ccccc1)NC(=O)[C@@H](N)C(C)C)C(=O)N[C@@H](C)C(=O)N1CCC[C@H]1C(=O)N[C@@H](CO)C(=O)N[C@@H](CCC(N)=O)C(=O)O [V41] (H-VFPWHSLAPFLAPSQ-OH)  0.07 µM
12. CC(C)C[C@H](NC(=O)[C@H](Cc1ccccc1)NC(=O)[C@@H]1CCCN1C(=O)[C@@H](NC(=O)[C@H](C)NC(=O)[C@H](CO)NC(=O)[C@H](Cc1c[nH]cn1)NC(=O)[C@H](Cc1c[nH]c2ccccc12)NC(=O)[C@@H]1CCCN1C(=O)[C@H](Cc1ccccc1)NC(=O)[C@@H](N)C(C)C)C(C)C)C(=O)N[C@@H](C)C(=O)N1CCC[C@H]1C(=O)N[C@@H](CO)C(=O)N[C@@H](CCC(N)=O)C(=O)O [L40] (H-VFPWHSAVPFLAPSQ-OH)  0.5 µM
13. CC(C)C[C@H](NC(=O)[C@H](Cc1ccccc1)NC(=O)[C@@H]1CCCN1C(=O)[C@@H](NC(=O)[C@H](CC(C)C)NC(=O)[C@H](CO)NC(=O)[C@H](Cc1c[nH]cn1)NC(=O)[C@H](C)NC(=O)[C@@H]1CCCN1C(=O)[C@H](Cc1ccccc1)NC(=O)[C@@H](N)C(C)C)C(C)C)C(=O)N[C@@H](C)C(=O)N1CCC[C@H]1C(=O)N[C@@H](CO)C(=O)N[C@@H](CCC(N)=O)C(=O)O [W37] (H-VFPAHSLVPFLAPSQ-OH)  2.6 µM
14. CC(C)C[C@H](NC(=O)[C@H](Cc1ccccc1)NC(=O)[C@@H]1CCCN1C(=O)[C@@H](NC(=O)[C@H](CC(C)C)NC(=O)[C@H](CO)NC(=O)[C@H](Cc1c[nH]cn1)NC(=O)[C@H](Cc1c[nH]c2ccccc12)NC(=O)[C@@H]1CCCN1)C(C)C)C(=O)N[C@@H](C)C(=O)N1CCC[C@H]1C(=O)N[C@@H](CO)C(=O)N[C@@H](CCC(N)=O)C(=O)O [CICp] (H-PWHSLVPFLAPSQ-OH)  8 µM

Same assay, conditions: 25°C, 50 mM Tris-HCl pH 7, 50 mM NaCl, 2 mM TCEP, averages of three measurements, read-out: dissociation constant (Kd)

Compound CC(C)C[C@H](NC(=O)[C@H](Cc1ccccc1)NC(=O)[C@@H]1CCCN1C(=O)[C@@H](NC(=O)[C@H](CC(C)C)NC(=O)[C@H](CO)NC(=O)[C@H](Cc1c[nH]cn1)NC(=O)[C@H](Cc1c[nH]c2ccccc12)NC(=O)[C@@H]1CCCN1C(=O)[C@H](Cc1ccccc1)NC(=O)[C@@H](N)C(C)C)C(C)C)C(=O)N[C@@H](C)C(=O)N1CCC[C@H]1C(=O)N[C@@H](CO)C(=O)N[C@@H](CCC(N)=O)C(=O)O [L-CICp] (H-VFPWHSLVPFLAPSQ-OH) has a Kd of about 0.033 µM.
